We go through 10 molecules from patent US11926602B1, “4-amino-5-(4-fluoro-3-phenoxyphenyl)-4H-1,2,4-triazole-3-thiol derivatives as antifungal agents” (KING FAISAL UNIVERSITY, priority 2023, dated 2024).

The test system of data set [1] is Aspergillus niger (ATCC RCMB 05064). The data set is described as follows: Antifungal microdilution assay, MIC against Aspergillus niger. The format is cell-based. As to conditions: RCMB05064, 0.49-125 μg/mL tested over 48 h, read-out: Minimum inhibitory concentration A. niger. As for the experimental part: (§1) The calculation of the minimum inhibitory concentrations (MICs) for the tested compounds was done against Candida parapsilosis (ATCC RCMB 05064); Candida albicans (ATCC RCMB 05064): Candida tropicalis (ATCC RCMB 05064); Aspergillus niger (ATCC RCMB 05064); Trichophyton rubrum (ATCC RCMB 05064). Microdilution assay was used to evaluate the tested compounds (2, 2a-2h) for their antifungal activity (Anaissie, E. J.; Paetznick, V. L.; Ensign, L. G.; Espinel-Ingroff, A.; Galgiani, J. N.; Hitchcock, C. A.; LaRocco. M.; Patterson. T.; Pfaller, M. A.; Rex, J. H.; et al. Microdilution antifungal susceptibility testing of Candida albicans and Cryptococcus neoformans with and without agitation: An eight-center collaborative study. Antimicrob. Agents Chemother. 1996, 40, 2387-2391). Different concentrations were tested from each compound; 0.49, 0.98, 1.95, 3.9, 7.81, 15.63, 31.25, 62.5, and 125 μg/mL over 48 h.
(§2) The observed antifungal activity of the present 4-amino-5-(4-fluoro-3-phenoxyphenyl)-4H-1,2,4-triazole-3-thiol (2) and its derivatives (2a-h) against various fungi are summarized below in Table 2.
Background: Broth dilution looks for growth in wells or tubes with falling amounts of substance.

For data set [2], the system named is Candida albicans (ATCC RCMB 05064). The data set is described as follows: Antifungal microdilution assay, MIC against Candida albicans. The format is cell-based. The note with it: RCMB05064, 0.49-125 μg/mL tested over 48 h, read-out: Minimum inhibitory concentration C. albicans. How it is done:
as §1, §2

Data set [3] relates to Trichophyton rubrum (ATCC RCMB 05064). The data set is described as follows: Antifungal microdilution assay, MIC against Trichophyton rubrum. The format is cell-based. The note with it: RCMB05064, 0.49-125 μg/mL tested over 48 h, read-out: Minimum inhibitory concentration T. rubrum. As for the experimental part: as §1, §2
In data set [4] the test system is Candida parapsilosis (ATCC RCMB 05064). The data set is described as follows: Antifungal microdilution assay, MIC against Candida parapsilosis. The note with it: Lodderomyces parapsilosis, RCMB05064, 0.49-125 μg/mL tested over 48 h, read-out: Minimum inhibitory concentration C. parapsilosis. The format is cell-based. As for the experimental part: as §1, §2
Data set [5] has as its system Candida tropicalis (ATCC RCMB 05064). The data set is described as follows: Antifungal microdilution assay, MIC against Candida tropicalis. The format is cell-based. As to conditions: RCMB05064, 0.49-125 μg/mL tested over 48 h, read-out: Minimum inhibitory concentration C. tropicalis. How it is done:
as §1, §2

Values after ≈ are worked out from the molar mass of the structure shown.

In the case of `Nn1c(S)nnc1-c1ccc(F)c(Oc2ccccc2)c1` [Compound 2, 4-amino-5-(4-fluoro-3-phenoxyphenyl)-4H-1,2,4-triazole-3-thiol], the melting point (commonly the temperature of the solid-liquid transition) was 205 to 207 °C. Besides, the MIC in data set [1] turned out to be 7.81 µg/mL (≈ 25.8 µM). In addition, the MIC in data set [2] was determined as 3.9 µg/mL (≈ 12.9 µM). The MIC in data set [3] was determined as 3.9 µg/mL (≈ 12.9 µM). Moreover, the MIC in data set [4] stood at 1.95 µg/mL (≈ 6.45 µM). Moreover, the MIC in data set [5] stood at 3.9 µg/mL (≈ 12.9 µM).

On to `Fc1ccc(-c2n[nH]c(=S)n2/N=C/c2ccccc2)cc1Oc1ccccc1` [Compound 2a], for which the melting point is 189 °C. The MIC in data set [1] amounted to 1.95 µg/mL (≈ 4.99 µM). Also, the MIC in data set [2] is 1.95 µg/mL (≈ 4.99 µM). The MIC in data set [3] stood at 1.95 µg/mL (≈ 4.99 µM). Besides, the MIC in data set [4] was 0.98 µg/mL (≈ 2.51 µM). The MIC in data set [5] is 0.98 µg/mL (≈ 2.51 µM).

For the molecule `Fc1ccc(-c2n[nH]c(=S)n2/N=C/c2ccc(Cl)cc2)cc1Oc1ccccc1` [Compound 2b], the melting point amounted to 174 °C. For the same molecule, the MIC in data set [1] came out at 31.2 µg/mL (≈ 73.5 µM). Further, in data set [2], the MIC was 31.2 µg/mL (≈ 73.5 µM). In data set [3], the MIC was 62.5 µg/mL (≈ 147 µM). The MIC in data set [4] was found to be 15.6 µg/mL (≈ 36.8 µM). Also, the MIC in data set [5] was 62.5 µg/mL (≈ 147 µM).

On to `Fc1ccc(-c2nn(CN3CCOCC3)c(=S)n2/N=C/c2ccc(Cl)cc2)cc1Oc1ccccc1` [Compound 2c], for which the melting point came to 146 °C. In addition, the MIC in data set [1] was 15.6 µg/mL (≈ 29.8 µM). In addition, the MIC in data set [2] came out at 15.6 µg/mL (≈ 29.8 µM). Further, in data set [3], the MIC stood at 32.2 µg/mL (≈ 61.5 µM). Further, the MIC in data set [4] is 15.6 µg/mL (≈ 29.8 µM). Also, the MIC in data set [5] worked out at 32.2 µg/mL (≈ 61.5 µM).

`Fc1ccc(/C=N/n2c(-c3ccc(F)c(Oc4ccccc4)c3)n[nH]c2=S)cc1` [Compound 2d] yielded a melting point of 172 °C. Besides, the MIC in data set [1] came out at 7.81 µg/mL (≈ 19.1 µM). Besides, the MIC in data set [2] worked out at 7.81 µg/mL (≈ 19.1 µM). Besides, in data set [3], the MIC was 15.6 µg/mL (≈ 38.3 µM). In addition, the MIC in data set [4] stood at 7.81 µg/mL (≈ 19.1 µM). Besides, the MIC in data set [5] worked out at 15.6 µg/mL (≈ 38.3 µM).

`Fc1ccc(-c2n[nH]c(=S)n2/N=C/c2cccc(Oc3ccccc3)c2)cc1Oc1ccccc1` [Compound 2e] yielded a melting point of 132 °C. Besides, the MIC in data set [1] stood at 3.9 µg/mL (≈ 8.08 µM). The MIC in data set [2] was determined as 1.95 µg/mL (≈ 4.04 µM). The MIC in data set [3] was 7.81 µg/mL (≈ 16.2 µM). Also, the MIC in data set [4] stood at 1.95 µg/mL (≈ 4.04 µM). Moreover, the MIC in data set [5] turned out to be 1.95 µg/mL (≈ 4.04 µM).

The molecule `CSc1nnc(-c2ccc(F)c(Oc3ccccc3)c2)n1N` [Compound 2f, 3-(4-Fluoro-3-phenoxyphenyl)-5-(methylthio)-4H-1,2,4-triazol-4-amine] registered a melting point of 152 °C. Besides, in data set [1], the MIC was 3.9 µg/mL (≈ 12.3 µM). In addition, the MIC in data set [2] worked out at 7.81 µg/mL (≈ 24.7 µM). For the same molecule, the MIC in data set [3] amounted to 7.81 µg/mL (≈ 24.7 µM). The MIC in data set [4] amounted to 3.9 µg/mL (≈ 12.3 µM). For the same molecule, in data set [5], the MIC stood at 7.81 µg/mL (≈ 24.7 µM).

For the molecule `Nn1c(SCc2cnc(Cl)s2)nnc1-c1ccc(F)c(Oc2ccccc2)c1` [Compound 2g, 3-(((2-Chlorothiazol-5-yl)methyl)thio)-5-(4-fluoro-3-phenoxyphenyl)-4H-1,2,4-triazol-4-amine], the melting point amounted to 136 °C. In addition, in data set [1], the MIC is 0.98 µg/mL (≈ 2.26 µM). In addition, the MIC in data set [2] was 0.49 µg/mL (≈ 1.13 µM). In addition, the MIC in data set [3] is 0.98 µg/mL (≈ 2.26 µM). Further, the MIC in data set [4] amounted to 0.49 µg/mL (≈ 1.13 µM). In addition, in data set [5], the MIC came to 0.49 µg/mL (≈ 1.13 µM).

`C=CCSc1nnc(-c2ccc(F)c(Oc3ccccc3)c2)n1N` [Compound 2h, 3-(Allylthio)-5-(4-fluoro-3-phenoxyphenyl)-4H-1,2,4-triazol-4-amine]: the melting point was found to be 128 °C. Further, the MIC in data set [1] is 0.98 µg/mL (≈ 2.86 µM). Also, the MIC in data set [2] is 0.98 µg/mL (≈ 2.86 µM). Besides, the MIC in data set [3] was found to be 1.95 µg/mL (≈ 5.7 µM). Further, the MIC in data set [4] was 0.49 µg/mL (≈ 1.43 µM). Moreover, in data set [5], the MIC was found to be 0.49 µg/mL (≈ 1.43 µM).

Turning to `OC(Cn1cncn1)(Cn1cncn1)c1ccc(F)cc1F` [Fluconazole, reference compound], the MIC stood at 0.49 µg/mL (≈ 1.6 µM) in data set [1]; 0.49 µg/mL (≈ 1.6 µM) in data set [2]; 1.95 µg/mL (≈ 6.37 µM) in data set [3]; 0.49 µg/mL (≈ 1.6 µM) in data set [4]; 0.98 µg/mL (≈ 3.2 µM) in data set [5].
